Results on 9 compounds are retold here after PubChem BioAssay (NCI).

Several values for one entry are separate records, joined by “and”; a condition that tells them apart may be missing. Equal values may be shown once.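 A five-concentration, 48-hour dose response in 96-well plates underlies each endpoint, interpolated linearly between surrounding concentrations. GI50: concentration for 50% inhibition of growth. Definition used: TGI = concentration required for complete inhibition of growth.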 Where only a bound is given, the exact number is not on record here.

Test systems include CCRF-CEM leukemia; DMS 114 small cell lung; EKVX NSCLC; HCT-15 colon; OVCAR-3 ovarian; SN12C renal; SW-620 colon; CAKI-1 renal; SK-OV-3 ovarian.
Holding throughout (assay): growth of human tumour cells (NCI), 48 h

Turning to `CSc1ccc(/C=C2/C[N+](C)(C)C/C(=C/c3ccc(SC)cc3)C2=O)cc1`, the TGI with CCRF-CEM leukemia was 31.5 µM; with DMS 114 small cell lung, 21.1 µM; with EKVX NSCLC, 35.1 µM; with HCT-15 colon it was more than 100 µM; in the test with OVCAR-3 ovarian, 38.3 µM; in the test on SN12C renal, 21.2 µM. In the test on SW-620 colon, this compound returned a TGI of 28.1 µM.
Regarding `Cc1[nH]c(N=Nc2ccccc2)nc1N=Nc1ccccc1`, the GI50 was 1.04 µM with CAKI-1 renal; 2.19 µM with CCRF-CEM leukemia; 3.05 µM with EKVX NSCLC; 1.4 µM in the test with HCT-15 colon; 2.6 µM in the test with OVCAR-3 ovarian; 3.14 µM in the test with SK-OV-3 ovarian. In addition, the values for the GI50 with SN12C renal and in the test on SW-620 colon were 3.51 µM and 4.7 µM, respectively. The TGI in the test with CAKI-1 renal is 3.48 µM; in the test on CCRF-CEM leukemia, more than 25.3 µM; with EKVX NSCLC it was 29.9 µM; in the test on HCT-15 colon, 22.1 µM; with OVCAR-3 ovarian, 16.1 µM; in the test with SK-OV-3 ovarian it was more than 32.4 µM. For the same compound, the TGI in the test on SN12C renal was 22.4 µM; with SW-620 colon, more than 56.7 µM.
As for `CCCCCCCCCCC(O)C1CCC(C2CCC(C(O)CCCCC(O)CCCCCC(O)CC3=CC(C)OC3=O)O2)O1` (configuration not stated), the TGI is more than 25 µM in the test on CAKI-1 renal; more than 25 µM in the test with CCRF-CEM leukemia; more than 25 µM with EKVX NSCLC; more than 25 µM with HCT-15 colon; 9.65 µM and > 25 µM in the test on OVCAR-3 ovarian; more than 25 µM in the test with SK-OV-3 ovarian. Besides, the TGI in the test on SN12C renal and with SW-620 colon was more than 25 µM each time. The GI50 is 1.58 µM in the test with CCRF-CEM leukemia; more than 25 µM with EKVX NSCLC; 4.64 µM in the test on HCT-15 colon; 2.16 µM in the test with OVCAR-3 ovarian; more than 25 µM in the test with SN12C renal; 3.93 µM in the test on SW-620 colon.
On to `CN1C(NC(=O)c2ccc(Cl)nc2)=NS(=O)(=O)c2cc(Cl)ccc21`, for which the GI50 in the test on CAKI-1 renal, in the test with CCRF-CEM leukemia, with EKVX NSCLC, in the test on HCT-15 colon, with OVCAR-3 ovarian and with SK-OV-3 ovarian was more than 100 µM each time. Also, the GI50 in the test on SN12C renal and in the test with SW-620 colon was more than 100 µM throughout. Besides, the TGI with CAKI-1 renal, with CCRF-CEM leukemia, in the test with EKVX NSCLC, in the test on HCT-15 colon, in the test with OVCAR-3 ovarian and in the test with SK-OV-3 ovarian was more than 100 µM in each case. In addition, the TGI with SN12C renal and with SW-620 colon was more than 100 µM each time.
With `COc1cc2c(/C=C3/C(=O)Nc4cccc(Cl)c43)c(Cl)n(Cc3ccccc3)c2cc1C`, the GI50 is 2.46 µM in the test on CAKI-1 renal; 4.83 µM in the test on CCRF-CEM leukemia; 6.84 µM with EKVX NSCLC; 3.12 µM with HCT-15 colon; 8.84 µM with OVCAR-3 ovarian; 7.24 µM in the test with SK-OV-3 ovarian. Also, the GI50 in the test on SN12C renal is 6.18 µM; in the test on SW-620 colon it was 6.11 µM. The TGI was 31.4 µM in the test on CAKI-1 renal; more than 100 µM in the test on CCRF-CEM leukemia; more than 26.4 µM with EKVX NSCLC; 31.3 µM with HCT-15 colon; 25.2 µM with OVCAR-3 ovarian; more than 74.8 µM in the test with SK-OV-3 ovarian. Moreover, the TGI in the test with SN12C renal is more than 35 µM; with SW-620 colon it was more than 100 µM.
Regarding `COc1cc(Cn2c(-c3ccccc3)cc3c2-c2oncc2CC3)cc(OC)c1OC`, the GI50 in the test on CAKI-1 renal is 0.566 µM; in the test with CCRF-CEM leukemia it was 0.857 µM; in the test with EKVX NSCLC it was 1.39 µM; in the test with HCT-15 colon, 0.64 µM; in the test with OVCAR-3 ovarian it was 0.372 µM; in the test on SK-OV-3 ovarian it was 1.53 µM. Also, the GI50 was 5.84 µM with SN12C renal and 0.42 µM in the test with SW-620 colon. Besides, the TGI is more than 100 µM with CAKI-1 renal; more than 100 µM in the test on CCRF-CEM leukemia; more than 100 µM with EKVX NSCLC; more than 100 µM in the test on HCT-15 colon; 1.65 µM in the test on OVCAR-3 ovarian; more than 100 µM in the test on SK-OV-3 ovarian. Further, the TGI in the test with SN12C renal and with SW-620 colon was more than 100 µM throughout.
Turning to `COc1ccc(-c2cc3c(nn2)-c2ccccc2C3=O)cc1`, the GI50 with CAKI-1 renal was more than 100 µM; with CCRF-CEM leukemia, 9.52 µM; with HCT-15 colon it was more than 100 µM; with OVCAR-3 ovarian, more than 100 µM; with SK-OV-3 ovarian, more than 100 µM; in the test on SN12C renal, more than 100 µM. Moreover, in the test with SW-620 colon, the GI50 is 72.7 µM. Besides, the TGI with CAKI-1 renal was more than 100 µM; in the test on CCRF-CEM leukemia, more than 100 µM; with EKVX NSCLC it was more than 10 µM; in the test on HCT-15 colon, more than 100 µM; in the test on OVCAR-3 ovarian, more than 100 µM; with SK-OV-3 ovarian it was more than 100 µM. Also, the TGI with SN12C renal and in the test on SW-620 colon was more than 100 µM throughout.
Turning to `NCCCCn1c2c(c3ccccc3c1=O)C(=O)c1ccccc1-2`, the GI50 was 0.0447 µM with CAKI-1 renal; 0.0195 µM in the test with CCRF-CEM leukemia; 1.21 µM with EKVX NSCLC; 0.0582 µM in the test on HCT-15 colon; 0.502 µM in the test with OVCAR-3 ovarian; 1.04 µM in the test on SK-OV-3 ovarian. Further, the GI50 with SN12C renal is 0.0385 µM; with SW-620 colon, less than 0.0185 µM. For the same compound, the TGI is 0.555 µM with CAKI-1 renal; 1.6 µM with CCRF-CEM leukemia; 4.62 µM with EKVX NSCLC; 0.412 µM with HCT-15 colon; 4.22 µM in the test with OVCAR-3 ovarian; 9.81 µM in the test on SK-OV-3 ovarian. Further, the TGI is 0.244 µM in the test on SN12C renal and 1.38 µM in the test with SW-620 colon.
In the case of `O=C(C[C@@H](C(=O)NCc1cccc(C(F)(F)F)c1)N1C(=O)[C@@H](N2C(=O)OC[C@@H]2c2ccccc2)[C@H]1/C=C/c1ccccc1)NC1CCN(Cc2ccccc2)CC1`, the GI50 with CAKI-1 renal is 14 µM; with CCRF-CEM leukemia it was 2.79 µM; with EKVX NSCLC, 15.1 µM; in the test on HCT-15 colon, 10.9 µM; in the test on OVCAR-3 ovarian, 10.4 µM; with SK-OV-3 ovarian, 15.3 µM. The GI50 in the test with SN12C renal was 9.46 µM; with SW-620 colon, 3.91 µM. Moreover, the TGI is 34.4 µM in the test on CAKI-1 renal; 7.84 µM with CCRF-CEM leukemia; 41.7 µM with EKVX NSCLC; 35.2 µM in the test with HCT-15 colon; 25.1 µM in the test with OVCAR-3 ovarian; 28.6 µM in the test with SK-OV-3 ovarian. For the same compound, the TGI amounted to 30.7 µM in the test with SN12C renal and 17.3 µM with SW-620 colon.
